What was measured:
Format in all cases: in vivo
[1] = system: spring barley, HORVS Montoya; assay: Tank-mix; post-emergence: crop damage by herbicide with/without safener mefenpyr-diethyl
Procedure: (§1) Seeds of crops (spring wheat, TRZAS; spring barley, HORVS; maize, ZEAMA) were placed in sandy loam soil in peat pots, covered with soil and cultivated in a greenhouse under good growth conditions. Two to three weeks after sowing, the test plants were treated at the 1 to 3-leaf stage. The herbicide/safener active compound combinations according to the invention, formulated as wettable powders or emulsion concentrates, and, in parallel tests, the correspondingly formulated individual active compounds were sprayed onto the green parts of the plants in various dosages using an amount of water of 300 l/ha (converted).
(§2) The pots were returned under good growing conditions in a glasshouse and a visual assessment of herbicidal effects was made at intervals from 1 to 3 weeks after herbicide application (DAT=days after treatment). Assessment was on a percentage basis in comparison with untreated control plants (0%=no injury, 100%=complete kill).

[2] = system: spring wheat, TRZAS Triso; assay: as above; settings: 10 DAT
Procedure: as §1, §2

[3] = system: spring barley, HORVS Montoya; assay: Seed treatment with safener; post-emergence herbicide, crop damage; settings: for HER effect + SAF / Reduction [%] / Reduction [Difference]: mefenpyr-diethyl 0.5 g a.i./kg seed
Excerpt: (§3) For safener seed treatment trials, sufficient seed amounts of the respective crops (spring wheat (TRZAS); spring barley (HORVS)) were weighed into screw cap glass bottles with a minimum volume trice of the seeds.
(§4) As a first step, specified safeners formulated as wettable powder (WP) or wettable granules (WG) were weighed out for the required dosages (g a.i./kg seed), corresponding to the seed amounts. The safener amounts were mixed with a coloured slurry blind formulation type, prediluted with milk at 3.5% fat rate (25 mgs slurry formulation plus 2 ml milk per 10 grams of seed). A tube roller was used for coating. The solutions were gradually pipetted each on the rotating seeds followed by coating for min. 3 hours until all liquid had been soaked up by the seeds. Thereafter, the coated seeds were put flat on open trays for drying over night at room temperature.
(§5) Treated seeds were then placed into pots (7 cm diameter) on the surface of sandy loam, pressed down, flat covered with additional soil and finally covered with sandy soil, also pressed down, watered, and kept under good growth conditions in a greenhouse, until the plants had reached 2-leaf-stage (BBCH 12).
(§6) At that stage, post-emergence application of the specified herbicides was done on:
(§7) a) pot sets containing plants with safener-coated seeds as described above,
(§8) b) as a reference, pot sets of plants without seed treatment.
(§9) The herbicides were formulated as wettable powder (WP). Equivalent to the spray area, compound amounts were weighed out and diluted related to the water application rate (300 l/ha) to an aqueous suspension plus additive (1 l/ha MERO). Dosage related equivalents were conventionally sprayed on trays with the potted plants.
(§10) After application, the test plants were kept under good growth conditions in a greenhouse.
(§11) Assessment timings were 10 and 21 days after treatment (DAT) with the herbicide, by visual scoring of the crop damage in % (comparison of untreated with treated plants, either sprayed only with herbicide or with herbicide on plants with treated seeds).

[4] = system: spring wheat, TRZAS Triso; assay: as above; settings: 10 DAT; for HER effect + SAF [%] (crop damage) / Reduction [%] / Reduction [Difference]: mefenpyr-diethyl 0.5 g a.i./kg seed; for HER effect [%] (crop damage, herbicide without safener): no safener
Excerpt: as §3, §4, §5, §6, §7, §8, §9, §10, §11

[5] = HER 8 g a.i./ha + mefenpyr-diethyl 50 g a.i./ha, 10 DAT
[6] = herbicide alone 8 g a.i./ha, 10 DAT
[7] = HER 6 g a.i./ha + mefenpyr-diethyl 50 g a.i./ha
[8] = HER 24 g a.i./ha + mefenpyr-diethyl 100 g a.i./ha
[9] = HER 8 g a.i./ha post-emergence, 10 DAT
[10] = HER 32 g a.i./ha post-emergence, 10 DAT
[11] = herbicide alone 8 g a.i./ha post-emergence, 10 DAT
[12] = herbicide alone 32 g a.i./ha post-emergence, 10 DAT
[13] = HER 8 g a.i./ha + mefenpyr-diethyl 50 g a.i./ha
[14] = HER 8 g a.i./ha + mefenpyr-diethyl 50 g a.i./ha, 21 DAT
[15] = HER 32 g a.i./ha + mefenpyr-diethyl 100 g a.i./ha, 21 DAT
[16] = HER 32 g a.i./ha + mefenpyr-diethyl 100 g a.i./ha
[17] = HER 8 g a.i./ha post-emergence, 21 DAT
[18] = HER 32 g a.i./ha post-emergence, 21 DAT

Which results are given for `CC1(C(=O)NC2CC=C(C(=O)NS(C)(=O)=O)C2)CC(c2cc(F)cc(F)c2)=NO1` (mixture of isomers) [Example 1.61]?
HER effect + SAF [1, 5]: 30%; Reduction [%] [1, 5]: 40%; Reduction [Difference] [1, 5]: 20; HER effect [1, 6]: 50%; HER effect + SAF [2, 7]: 10%; Reduction [%] [2, 7]: 80%; Reduction [Difference] [2, 7]: 40; HER effect + SAF [2, 8]: 20%; Reduction [%] [2, 8]: 60%; Reduction [Difference] [2, 8]: 30; HER effect ([2]; herbicide alone 6 g a.i./ha): 50%; HER effect ([2]; herbicide alone 24 g a.i./ha): 50%; HER effect + SAF [3, 9]: 10%; Reduction [%] [3, 9]: 80%; Reduction [Difference] [3, 9]: 40; HER effect + SAF [3, 10]: 20%; Reduction [%] [3, 10]: 67%; Reduction [Difference] [3, 10]: 40; HER effect [3, 11]: 50%; HER effect [3, 12]: 60%; HER effect + SAF [%] (crop damage) ([4]; HER dose 8 g a.i./ha): 10%; Reduction [%] ([4]; HER dose 8 g a.i./ha): 80%; Reduction [Difference] ([4]; HER dose 8 g a.i./ha): 40; HER effect [%] (crop damage, herbicide without safener) ([4]; HER dose 8 g a.i./ha): 50%

With `C=CC1(C(=O)NC2COC(C(=O)OCCOC)C2)CC(c2cc(C)cc(F)c2)=NO1` (mixture of isomers) [Example 1.65] as the compound, how does the “HER effect + SAF” value [1, 5] read?
Its value is 20%.

And the “Reduction [%]” value [1, 5]?
The value was 75%.

And the “Reduction [Difference]” value [1, 5]?
Its value is 60.

What about the HER effect [1, 6] of the same compound?
Its HER effect is 80%.

What about the “HER effect + SAF” value [2, 13] of the same compound?
The value was 0%.

What about the “Reduction [%]” value [2, 13] of the same compound?
Its value is 100%.

And the “Reduction [Difference]” value [2, 13]?
The value was 20.

What about the HER effect ([2]; herbicide alone 8 g a.i./ha) of the same compound?
Its HER effect is 20%.

And the “HER effect + SAF” value [3, 9]?
The value was 20%.

And the “Reduction [%]” value [3, 9]?
The value was 75%.

And the “Reduction [Difference]” value [3, 9]?
Its value is 60.

And the “HER effect + SAF” value [3, 10]?
Its value is 50%.

What about the “Reduction [%]” value [3, 10] of the same compound?
The value was 38%.

What about the “Reduction [Difference]” value [3, 10] of the same compound?
Its value is 30.

What about the HER effect [3, 11] of the same compound?
The HER effect was 80%.

And the HER effect [3, 12]?
Its HER effect is 80%.

What about the “HER effect + SAF [%] (crop damage)” value ([4]; HER dose 8 g a.i./ha) of the same compound?
The value was 0%.

And the “Reduction [%]” value ([4]; HER dose 8 g a.i./ha)?
The value was 100%.

What about the “Reduction [Difference]” value ([4]; HER dose 8 g a.i./ha) of the same compound?
The value was 20.

What about the “HER effect [%] (crop damage, herbicide without safener)” value ([4]; HER dose 8 g a.i./ha) of the same compound?
Its value is 20%.

Which results are given for `C=CC1(C(=O)NC2COC(C(=O)OC)C2)CC(c2cc(C)cc(F)c2)=NO1` (mixture of isomers) [Example 1.71]?
HER effect + SAF [1, 14]: 20%; Reduction [%] [1, 14]: 60%; Reduction [Difference] [1, 14]: 30; HER effect + SAF [1, 15]: 50%; Reduction [%] [1, 15]: 29%; Reduction [Difference] [1, 15]: 20; HER effect ([1]; herbicide alone 8 g a.i./ha, 21 DAT): 50%; HER effect ([1]; herbicide alone 32 g a.i./ha, 21 DAT): 70%; HER effect + SAF [2, 13]: 0%; Reduction [%] [2, 13]: 100%; Reduction [Difference] [2, 13]: 50; HER effect + SAF [2, 16]: 20%; Reduction [%] [2, 16]: 76%; Reduction [Difference] [2, 16]: 65; HER effect ([2]; herbicide alone 8 g a.i./ha): 50%; HER effect ([2]; herbicide alone 32 g a.i./ha): 85%; HER effect + SAF [3, 17]: 30%; Reduction [%] [3, 17]: 40%; Reduction [Difference] [3, 17]: 20; HER effect + SAF [3, 18]: 40%; Reduction [%] [3, 18]: 43%; Reduction [Difference] [3, 18]: 30; HER effect ([3]; herbicide alone 8 g a.i./ha post-emergence, 21 DAT): 50%; HER effect ([3]; herbicide alone 32 g a.i./ha post-emergence, 21 DAT): 70%; HER effect + SAF [%] (crop damage) ([4]; HER dose 8 g a.i./ha): 0%; Reduction [%] ([4]; HER dose 8 g a.i./ha): 100%; Reduction [Difference] ([4]; HER dose 8 g a.i./ha): 50; HER effect [%] (crop damage, herbicide without safener) ([4]; HER dose 8 g a.i./ha): 50%; HER effect + SAF [%] (crop damage) ([4]; HER dose 32 g a.i./ha): 0%; Reduction [%] ([4]; HER dose 32 g a.i./ha): 100%; Reduction [Difference] ([4]; HER dose 32 g a.i./ha): 85; HER effect [%] (crop damage, herbicide without safener) ([4]; HER dose 32 g a.i./ha): 85%

From patent US20230200390A1, “SELECTIVE HERBICIDES BASED ON SUBSTITUTED ISOXAZOLIN CARBOXAMIDES AND MEFENPYR-DIETHYL” (BAYER AKTIENGESELLSCHAFT, priority 2020, published 2023)
